The target of series [1] is Sushi domains (SD1/2) protein. As to the kind of experiment: Fluorescence polarization (FP) competition assay with AJAP-1probe, calculated Ki. Type of series: binding. In outline:
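Competition against 25 nM TAMRA-labelled peptide probe binding SD1/2, in PBS pH 7.4 with 1% BSA at rt, read at 530/580 nm. IC50 from sigmoidal dose-response fits, at least triplicate; Ki calculated from IC50 using probe Kd from saturation binding.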

Series [2] is described as follows: In vitro plasma stability. To be noted: human; for half-life: plasma.
Description: For time-course assay, 360 μL human plasma was pre-warmed up at 37° C. for 15 min and then spiked with 40 μL of tested peptides (1 mM in 1×PBS). […] Subsequently, 100 μL acetonitrile was added into and then samples were incubated overnight at −20° C. After that, all samples were centrifuged at 13,400 rpm for 10 min and the supernatant was filtered and then analyzed by LC-MS and UPLC (Waters). The area under the curve (AUC) was determined and normalized to the value of the first time point. The half-life (T1/2) was obtained by fitting the data to the one-phase decay equation in GraphPad Prism 9 and expressed as the mean of three individual experiments. For end-point assay, 108 μL human plasma was pre-warmed up at 37° C. for 15 min and then spiked with 12 μL of tested peptides (1 mM in 1×PBS).
The mark [3] stands for this setting: CPP tagged peptides overview, SD1/2 binding affinity, mean ± SEM, n ≥ 3, read-out: Ki.
[4] abbreviates: Table 1, affinity maturation, mean ± SEM, n ≥ 3, read-out: Ki.
Where [5] appears, read: Table 16, ncAAs incorporated peptides, read-out: Ki (nM) mean ± SEM.
The mark [6] stands for this setting: Table 10, deep mutational scanning validation variants of APPWT, read-out: Ki (nM) mean ± SEM.

Read-outs that look alike come from different tables or passages of the source. Non-standard residues stand in square brackets, D forms with d. Residues, ends and D or L forms follow the SMILES beside them. *: point of attachment. 2Nal = N[C@@H](Cc1ccc2ccccc2c1)C(=O)O; Bn = c1ccc(C*)cc1

`CC[C@H](C)[C@H](NC(=O)[C@H](Cc1ccc2ccccc2c1)NC(=O)[C@H](CC(=O)O)NC(=O)[C@H](CC(=O)O)NC(=O)[C@H](CC(=O)O)NC(=O)[C@H](CCC(=O)O)NC(C)=O)C(=O)N[C@@H](CC(=O)O)C(=O)N[C@@H](Cc1c[nH]c2ccccc12)C(=O)NCC(=O)N1CCC[C@H]1C(=O)N[C@H](C(=O)N[C@@H](CO)C(=O)N[C@@H](CC(=O)O)C(=O)N[C@@H](CC(=O)O)C(=O)N[C@@H](CC(=O)O)C(N)=O)[C@@H](C)O` [Peptide 21] (Ac-EDDD[2Nal]IDWGPTSDDD-NH2): the Ki in series [1] (setting [3]), in series [1] (setting [4]) and in series [1] (setting [5]) was 5.3 ± 0.2 nM throughout. Moreover, the half-life – broadly, how long it takes for the measured level to halve – in series [2] is over 48 h.
Consider `CC[C@H](C)[C@H](NC(=O)[C@H](Cc1c[nH]c2ccccc12)NC(=O)[C@H](CC(=O)O)NC(=O)[C@H](CC(=O)O)NC(=O)[C@H](CC(=O)O)NC(=O)[C@H](CCC(=O)O)NC(=O)[C@H](CCCNC(=N)N)NC(=O)[C@H](CCCNC(=N)N)NC(=O)[C@H](CCCNC(=N)N)NC(=O)[C@H](CCCNC(=N)N)NC(=O)[C@H](CCCNC(=N)N)NC(=O)[C@H](CCCNC(=N)N)NC(=O)[C@H](CCCNC(=N)N)NC(=O)[C@H](CCCNC(=N)N)NC(C)=O)C(=O)N[C@@H](CC(=O)O)C(=O)N[C@@H](Cc1c[nH]c2ccccc12)C(=O)N[C@@H](Cc1ccc(O)cc1)C(=O)N[C@@H](CC(=O)O)C(=O)N[C@@H](CO)C(=O)N[C@@H](CC(=O)O)C(=O)N[C@@H](CC(=O)O)C(=O)N[C@@H](CC(=O)O)C(N)=O` [Peptide R8-16] (Ac-RRRRRRRREDDDWIDWYDSDDD-NH2), for which the Ki (usually the dissociation constant of the complex between target and ligand, obtained from inhibition or displacement) in series [1] (setting [3]) was 107 ± 1 nM; in series [1] (Table 14, CPPs tagged peptides, read-out: Ki (nM) mean ± SEM), 107 ± 2 nM. Further, in series [2] (human plasma), the share remaining (as a rule, the share of the starting amount still present when the sample was taken) at 48 h, 100 µM was about 50%. In series [2], this compound gave a half-life of over 48 h.
As for `CC[C@H](C)[C@H](NC(=O)[C@H](C)NC(=O)[C@H](Cc1c[nH]c2ccccc12)NC(=O)[C@@H]1CCCN1C(C)=O)C(=O)N[C@H](C(=O)N[C@@H](Cc1c[nH]c2ccccc12)C(=O)NCC(=O)N1CCC[C@H]1C(=O)N[C@H](C(=O)N[C@H](C(=O)N[C@@H](CO)C(=O)N[C@@H](CCCNC(=N)N)C(=O)N[C@@H](CCC(=O)O)C(=O)N[C@@H](CC(=O)O)C(N)=O)C(C)C)[C@@H](C)O)C(C)C` [PIANPWT, Ac-PWAIVWGPTVSRED-NH2] (Ac-PWAIVWGPTVSRED-NH2), the Ki in series [1] (purified peptides, read-out: Ki) is 476 ± 19 nM. Also, the half-life in series [2] was 16 h.
On to `CCOc1ccc(C[C@H](NC(=O)[C@H](CC(=O)O)NC(=O)[C@H](CC(=O)O)NC(=O)[C@H](CC(=O)O)NC(=O)[C@H](CCC(=O)O)NC(C)=O)C(=O)N[C@H](C(=O)N[C@@H](CC(=O)O)C(=O)N[C@@H](Cc2c[nH]c3ccccc23)C(=O)NCC(=O)N2CCC[C@H]2C(=O)N[C@H](C(=O)N[C@@H](CO)C(=O)N[C@@H](CC(=O)O)C(=O)N[C@@H](CC(=O)O)C(=O)N[C@@H](CC(=O)O)C(N)=O)[C@@H](C)O)[C@@H](C)CC)cc1` [Peptide 34] (Ac-EDDDY(Et)IDWGPTSDDD-NH2), for which the Ki in series [1] (setting [4]) and in series [1] (setting [5]) was 6.5 ± 0.4 nM in each case.
Turning to `CC[C@H](C)[C@H](NC(=O)[C@H](C)NC(=O)[C@H](Cc1c[nH]c2ccccc12)NC(=O)[C@@H]1CCCN1C(C)=O)C(=O)N[C@H](C(=O)N[C@@H](Cc1c[nH]c2ccccc12)C(=O)NCC(=O)N1CCC[C@H]1C(N)=O)C(C)C` (Ac-PWAIVWGP-NH2), in series [1] (Table 6, elongation and truncation scan of PIANP binding epitope, read-out: Ki (nM) mean ± SEM), the Ki was 597 ± 7 nM.
Take `CC(=O)N[C@@H](CCC(=O)O)C(=O)N[C@@H](CC(=O)O)C(=O)N[C@@H](CC(=O)O)C(=O)N[C@@H](CO)C(=O)N[C@@H](CC(=O)O)C(=O)N[C@H](C(=O)N[C@@H](CC(=O)O)C(=O)N[C@@H](Cc1c[nH]c2ccccc12)C(=O)NCC(=O)NCC(=O)N[C@@H](C)C(=O)N[C@@H](CC(=O)O)C(=O)N[C@H](C(=O)N[C@@H](CC(=O)O)C(N)=O)[C@@H](C)O)C(C)C` (Ac-EDDSDVDWGGADTD-NH2): in series [1] (setting [6]), the Ki was 4804 ± 43 nM.
Consider `CC[C@H](C)[C@H](NC(=O)[C@H](Cc1ccccc1)NC(=O)[C@H](CCC(=O)O)NC(=O)[C@@H](NC(=O)[C@H](CCC(=O)O)NC(C)=O)[C@@H](C)O)C(=O)N[C@@H](C)C(=O)N[C@@H](Cc1c[nH]c2ccccc12)C(=O)NCC(=O)N1CCC[C@H]1C(=O)N[C@H](C(=O)NCC(=O)N[C@@H](Cc1ccc(O)cc1)C(=O)N[C@@H](CCC(=O)O)C(=O)N[C@@H](CC(=O)O)C(N)=O)[C@@H](C)O` [ETEFIAWGPTGYED] (Ac-ETEFIAWGPTGYED-NH2), for which the Ki in series [1] (Table 11, deep mutational scanning validation variants of AJAP-1WT, read-out: Ki (nM) mean ± SEM) was 41 ± 1 nM.
With `CC(=O)N[C@@H](CO)C(=O)N[C@@H](C)C(=O)N[C@@H](CC(=O)O)C(=O)N[C@@H](C)C(=O)N[C@@H](CCC(=O)O)C(=O)N[C@@H](CCC(=O)O)C(=O)N[C@@H](CC(=O)O)C(=O)N[C@@H](CC(=O)O)C(=O)N[C@@H](CO)C(=O)N[C@@H](CC(=O)O)C(=O)N[C@H](C(=O)N[C@@H](Cc1c[nH]c2ccccc12)C(=O)N[C@@H](Cc1c[nH]c2ccccc12)C(=O)NCC(=O)NCC(N)=O)C(C)C` [Peptide 12] (Ac-SADAEEDDSDVWWGG-NH2), the Ki in series [1] (AJAP-1probe, read-out: Ki) was 1300 nM; in series [1] (Table 3, SPOT hit validation and previously reported peptides, read-out: Ki (nM) mean ± SEM), 1300 ± 28 nM.
As for `CC(=O)N[C@@H](CCC(=O)O)C(=O)N[C@@H](CC(=O)O)C(=O)N[C@@H](CC(=O)O)C(=O)N[C@@H](CO)C(=O)N[C@@H](CC(=O)O)C(=O)N[C@@H](C)C(=O)N[C@@H](Cc1c[nH]c2ccccc12)C(=O)N[C@@H](Cc1c[nH]c2ccccc12)C(=O)NCC(=O)NCC(=O)N[C@@H](C)C(=O)N[C@@H](CC(=O)O)C(=O)N[C@H](C(=O)N[C@@H](CC(=O)O)C(N)=O)[C@@H](C)O` (Ac-EDDSDAWWGGADTD-NH2), in series [1] (Table 7, cells printed in μM, read-out: Ki (nM) mean ± SEM), the Ki is over 62500 nM.
As for `CC[C@H](C)[C@H](NC(=O)[C@H](C)NC(=O)[C@H](Cc1c[nH]c2ccccc12)NC(=O)[C@@H]1CCCN1C(C)=O)C(=O)N[C@@H](C)C(=O)N[C@@H](Cc1c[nH]c2ccccc12)C(=O)NCC(=O)N1CCC[C@H]1C(=O)N[C@H](C(=O)N[C@H](C(=O)N[C@@H](CO)C(=O)N[C@@H](CCCNC(=N)N)C(=O)N[C@@H](CCC(=O)O)C(=O)N[C@@H](CC(=O)O)C(N)=O)C(C)C)[C@@H](C)O` [PWAIAWGPTVSRED], the Ki in series [1] (Table 9, Ala-, D-amino acids and N-methylation scans of PIANPWT, read-out: Ki (nM) mean ± SEM) was 1462 ± 14 nM.
For the compound `CC(=O)N[C@@H](CCC(=O)O)C(=O)N[C@@H](CC(=O)O)C(=O)N[C@@H](CC(=O)O)C(=O)N[C@@H](CO)C(=O)N[C@@H](CC(=O)O)C(=O)N[C@H](C(=O)N[C@@H](Cc1c[nH]c2ccccc12)C(=O)N[C@@H](Cc1c[nH]c2ccccc12)C(=O)NCC(=O)NCC(=O)N[C@@H](C)C(=O)N[C@@H](CC(=O)O)C(=O)N[C@H](C(=O)N[C@@H](C)C(N)=O)[C@@H](C)O)C(C)C` (Ac-EDDSDVWWGGADTA-NH2), the Ki in series [1] (Table 7, Ala-, D-amino acids and N-methylation scans of APPWT, read-out: Ki (nM) mean ± SEM) was 786 ± 29 nM.
As for `CC[C@H](C)[C@H](NC(=O)[C@H](C)NC(=O)[C@H](Cc1c[nH]c2ccccc12)NC(=O)[C@@H]1CCCN1C(C)=O)C(=O)N[C@H](C(=O)N[C@@H](C)C(=O)NCC(=O)N1CCC[C@H]1C(=O)N[C@H](C(=O)N[C@H](C(=O)N[C@@H](CO)C(=O)N[C@@H](CCCNC(=N)N)C(=O)N[C@@H](CCC(=O)O)C(=O)N[C@@H](CC(=O)O)C(N)=O)C(C)C)[C@@H](C)O)C(C)C` [PWAIVAGPTVSRED] (Ac-PWAIVAGPTVSRED-NH2), the Ki in series [1] (Table 9, cells printed in μM, read-out: Ki (nM) mean ± SEM) was over 62500 nM.
Take `CC[C@H](C)[C@H](NC(=O)[C@H](Cc1ccccc1)NC(=O)[C@H](CCC(=O)O)NC(=O)[C@@H](NC(C)=O)[C@@H](C)O)C(=O)N[C@@H](C)C(=O)N[C@@H](Cc1c[nH]c2ccccc12)C(=O)NCC(=O)N1CCC[C@H]1C(=O)N[C@H](C(=O)NCC(=O)N[C@@H](CC(=O)O)C(=O)N[C@@H](CCC(=O)O)C(=O)N[C@@H](CC(=O)O)C(N)=O)[C@@H](C)O` [TEFIAWGPTGDED] (Ac-TEFIAWGPTGDED-NH2): the Ki in series [1] (Table 5, elongation and truncation scan of AJAP-1 binding epitope, read-out: Ki (nM) mean ± SEM) is 102 ± 4 nM.
Consider `CC(=O)N[C@@H](CCC(=O)O)C(=O)N[C@@H](CC(=O)O)C(=O)N[C@@H](CC(=O)O)C(=O)N[C@@H](CO)C(=O)N[C@@H](CC(=O)O)C(=O)N[C@H](C(=O)N[C@@H](Cc1c[nH]c2ccccc12)C(=O)N[C@@H](Cc1c[nH]c2ccccc12)C(=O)N[C@@H](Cc1ccc(OCc2ccccc2)cc1)C(=O)NCC(=O)N[C@@H](C)C(=O)N[C@@H](CC(=O)O)C(=O)N[C@H](C(=O)N[C@@H](CC(=O)O)C(N)=O)[C@@H](C)O)C(C)C` (Ac-EDDSDVWWY(Bn)GADTD-NH2), for which, in series [1] (setting [5]), the Ki is 88 ± 4 nM.
For the compound `COc1ccc(C[C@H](NC(=O)[C@H](Cc2c[nH]c3ccccc23)NC(=O)[C@H](Cc2c[nH]c3ccccc23)NC(=O)[C@@H](NC(=O)[C@H](CC(=O)O)NC(=O)[C@H](CO)NC(=O)[C@H](CC(=O)O)NC(=O)[C@H](CC(=O)O)NC(=O)[C@H](CCC(=O)O)NC(C)=O)C(C)C)C(=O)NCC(=O)N[C@@H](C)C(=O)N[C@@H](CC(=O)O)C(=O)N[C@H](C(=O)N[C@@H](CC(=O)O)C(N)=O)[C@@H](C)O)cc1` (Ac-EDDSDVWWY(Me)GADTD-NH2), the Ki in series [1] (setting [5]) was 109 ± 4 nM.
On to `CC[C@H](C)[C@H](NC(=O)[C@H](CC(=O)O)NC(=O)[C@H](CO)NC(=O)[C@H](CC(=O)O)NC(=O)[C@H](CC(=O)O)NC(=O)[C@H](CCC(=O)O)NC(C)=O)C(=O)N[C@@H](Cc1c[nH]c2ccccc12)C(=O)N[C@@H](Cc1c[nH]c2ccccc12)C(=O)NCC(=O)NCC(=O)N[C@@H](C)C(=O)N[C@@H](CC(=O)O)C(=O)N[C@H](C(=O)N[C@@H](CC(=O)O)C(N)=O)[C@@H](C)O` (Ac-EDDSDIWWGGADTD-NH2), for which the inhibition constant (Ki) in series [1] (setting [6]) is 401 ± 7 nM.

(Values after patent US20260193293A1, “PEPTIDES CAPABLE OF INHIBITING PROTEIN-PROTEIN INTERACTIONS AT GABAB1A SUBUNIT AND USES THEREOF” (UNIVERSITY OF COPENHAGEN, priority 2022, published 2026).)
